Test results reported in patent US12492173B2, “Herbicidal substituted N-tetrazolyl aryl carboxamides” (Bayer Aktiengesellschaft, priority 2019, dated 2025).

Assays:
Format in all cases: in vivo
[1] = tested on: Abutilon theophrasti; assay: Pre-emergence herbicidal action, ABUTH; conditions: dosage 320 g/ha
Source text: (§1) 1. Pre-Emergence Herbicidal Action Against Harmful Plants Seeds of monocotyledonous and dicotyledonous weed plants and crop plants are laid out in sandy loam soil in wood-fiber pots and covered with soil. The compounds of the invention, formulated in the form of wettable powders (WP) or as emulsion concentrates (EC), are then applied to the surface of the covering soil in the form of an aqueous suspension or emulsion at a water application rate equating to 600 to 800 l/ha, with addition of 0.2% wetting agent. After the treatment, the pots are placed in a greenhouse and kept under good growth conditions for the trial plants. The damage to the test plants is scored visually after a test period of 3 weeks by comparison with untreated controls (herbicidal activity in percent (%): 100% activity=the plants have died, 0% activity=like control plants). […] The tables below illustrate, in an exemplary manner, the […] herbicidal action of the compounds according to the invention, the herbicidal activity being stated in percent. [table] In the experiments that follow, herbicidal action of numerous inventive compounds and the known compounds that are structurally closest from D1 (WO 2012/028579 A1) and D2 (WO 2018/202535 A1) were compared under the above-specified conditions by the pre-emergence and post-emergence method. The example numbers given in the tables relate to the compounds disclosed in the respective documents. In addition to the compounds disclosed in D1 and D2, the following compounds V-1 to V-14 that are encompassed by D1 or D2 but are not compounds specified therein were used in the comparative experiments: • V-1: 2-(methylsulfanyl)-3-(methylsulfinyl)-N-(1-methyl-1H-tetrazol-5-yl)-4-(trifluoromethyl)benzamide • V-2: 2-(methylsulfanyl)-3-(methylsulfonyl)-N-(1-methyl-1H-tetrazol-5-yl)-4-(trifluoromethyl)benzamide • V-3: 2,3-bis(ethylsulfanyl)-N-(1-methyl-1H-tetrazol-5-yl)-4-(trifluoromethyl)benzamide • V-4: 2-chloro-3-(ethylsulfanyl)-N-(1-methyl-1H-tetrazol-5-yl)-4-(trifluoromethyl)benzamide • V-5: 2-chloro-4-iodo-3-(methylsulfanyl)-N-(1-methyl-1H-tetrazol-5-yl)benzamide • V-6: 2-chloro-4-iodo-3-(methylsulfinyl)-N-(1-methyl-1H-tetrazol-5-yl)benzamide • V-7: 2-chloro-4-iodo-3-(methylsulfonyl)-N-(1-methyl-1H-tetrazol-5-yl)benzamide • V-8: 2-bromo-3-(methylsulfanyl)-N-(1-methyl-1H-tetrazol-5-yl)-4-(trifluoromethyl)benzamide • V-9: 2-bromo-3-(methylsulfinyl)-N-(1-methyl-1H-tetrazol-5-yl)-4-(trifluoromethyl)benzamide • V-10: 2-bromo-3-(methylsulfonyl)-N-(1-methyl-1H-tetrazol-5-yl)-4-(trifluoromethyl)benzamide • V-11: 2-bromo-3-(ethylsulfanyl)-N-(1-methyl-1H-tetrazol-5-yl)-4-(trifluoromethyl)benzamide • V-12: 2-bromo-3-(ethylsulfinyl)-N-(1-methyl-1H-tetrazol-5-yl)-4-(trifluoromethyl)benzamide • V-13: 2-bromo-3-(ethylsulfonyl)-N-(1-methyl-1-1H-tetrazol-5-yl)-4-(trifluoromethyl)benzamide • V-14: 2-cyclopropyl-3-(ethylsulfanyl)-N-(1-methyl-1H-tetrazol-5-yl)-4-(trifluoromethyl)benzamide Herbicidal Pre-Emergence Action: […]

[2] = tested on: Amaranthus retroflexus; assay: Pre-emergence herbicidal action, AMARE; parameters: key to Herbicidal action against AMARE: % activity: 100 = plants have died, 0 = like control plants; conditions: for herbicidal action AMARE: dosage 320 g/ha
Source text: as §1

[3] = tested on: Matricaria inodora; assay: Pre-emergence herbicidal action, MATIN; conditions: dosage 320 g/ha
Source text: as §1

[4] = tested on: Veronica persica; assay: Pre-emergence herbicidal action, VERPE; conditions: dosage 320 g/ha
Source text: as §1

[5] = tested on: Viola tricolor; assay: Pre-emergence herbicidal action, VIOTR; parameters: key to Herbicidal action against VIOTR: % activity: 100 = plants have died, 0 = like control plants; conditions: for herbicidal action VIOTR: dosage 320 g/ha
Source text: as §1

[6] = tested on: Abutilon theophrasti; assay: Post-emergence herbicidal action, ABUTH; parameters: key: % herbicidal action vs untreated; 100 = plants died, 0 = like control; conditions: for herbicidal action ABUTH: Dosage 80 g/ha; for Herbicidal action against ABUTH: post-emergence, dosage 80 g/ha
Protocol: (§2) [table] 2. Post-Emergence Herbicidal Action Against Harmful Plants Seeds of monocotyledonous and dicotyledonous weed and crop plants are laid out in sandy loam soil in wood-fiber pots, covered with soil and cultivated in a greenhouse under good growth conditions. 2 to 3 weeks after sowing, the test plants are treated at the one-leaf stage. The compounds of the invention, formulated in the form of wettable powders (WP) or as emulsion concentrates (EC), are then sprayed onto the green parts of the plants in the form of an aqueous suspension or emulsion at a water application rate equating to 600 to 800 l/ha, with addition of 0.2% wetting agent. After the test plants have been left to stand in the greenhouse under optimal growth conditions for about 3 weeks, the action of the preparations is assessed visually in comparison to untreated controls (herbicidal action in percent (%): 100% activity=the plants have died, 0% activity=like control plants). […] The tables below illustrate, in an exemplary manner, the post-emergence herbicidal action of the compounds according to the invention, the herbicidal activity being stated in percent. In the experiments that follow, herbicidal action of numerous inventive compounds and the known compounds that are structurally closest from D1 (WO 2012/028579 A1) and D2 (WO 2018/202535 A1) were compared under the above-specified conditions by the pre-emergence and post-emergence method. The example numbers given in the tables relate to the compounds disclosed in the respective documents. In addition to the compounds disclosed in D1 and D2, the following compounds V-1 to V-14 that are encompassed by D1 or D2 but are not compounds specified therein were used in the comparative experiments: • V-1: 2-(methylsulfanyl)-3-(methylsulfinyl)-N-(1-methyl-1H-tetrazol-5-yl)-4-(trifluoromethyl)benzamide • V-2: 2-(methylsulfanyl)-3-(methylsulfonyl)-N-(1-methyl-1H-tetrazol-5-yl)-4-(trifluoromethyl)benzamide • V-3: 2,3-bis(ethylsulfanyl)-N-(1-methyl-1H-tetrazol-5-yl)-4-(trifluoromethyl)benzamide • V-4: 2-chloro-3-(ethylsulfanyl)-N-(1-methyl-1H-tetrazol-5-yl)-4-(trifluoromethyl)benzamide • V-5: 2-chloro-4-iodo-3-(methylsulfanyl)-N-(1-methyl-1H-tetrazol-5-yl)benzamide • V-6: 2-chloro-4-iodo-3-(methylsulfinyl)-N-(1-methyl-1H-tetrazol-5-yl)benzamide • V-7: 2-chloro-4-iodo-3-(methylsulfonyl)-N-(1-methyl-1H-tetrazol-5-yl)benzamide • V-8: 2-bromo-3-(methylsulfanyl)-N-(1-methyl-1H-tetrazol-5-yl)-4-(trifluoromethyl)benzamide • V-9: 2-bromo-3-(methylsulfinyl)-N-(1-methyl-1H-tetrazol-5-yl)-4-(trifluoromethyl)benzamide • V-10: 2-bromo-3-(methylsulfonyl)-N-(1-methyl-1H-tetrazol-5-yl)-4-(trifluoromethyl)benzamide • V-11: 2-bromo-3-(ethylsulfanyl)-N-(1-methyl-1H-tetrazol-5-yl)-4-(trifluoromethyl)benzamide • V-12: 2-bromo-3-(ethylsulfinyl)-N-(1-methyl-1H-tetrazol-5-yl)-4-(trifluoromethyl)benzamide • V-13: 2-bromo-3-(ethylsulfonyl)-N-(1-methyl-1-1H-tetrazol-5-yl)-4-(trifluoromethyl)benzamide • V-14: 2-cyclopropyl-3-(ethylsulfanyl)-N-(1-methyl-1H-tetrazol-5-yl)-4-(trifluoromethyl)benzamide Herbicidal Pre-Emergence Action: […]

[7] = tested on: Amaranthus retroflexus; assay: Post-emergence herbicidal action, AMARE; parameters: key: % herbicidal action vs untreated; 100 = plants died, 0 = like control; conditions: for herbicidal action AMARE: Dosage 80 g/ha; for Herbicidal action against AMARE: post-emergence, dosage 80 g/ha
Protocol: as §2

[8] = tested on: Echinochloa crus-galli; assay: Post-emergence herbicidal action, ECHCG; parameters: key: % herbicidal action vs untreated; 100 = plants died, 0 = like control; conditions: for herbicidal action ECHCG: Dosage 80 g/ha; for Herbicidal action against ECHCG: post-emergence, dosage 80 g/ha
Protocol: as §2

[9] = tested on: Matricaria inodora; assay: Post-emergence herbicidal action, MATIN; parameters: key: % herbicidal action vs untreated; 100 = plants died, 0 = like control; conditions: for herbicidal action MATIN: Dosage 80 g/ha; for Herbicidal action against MATIN: post-emergence, dosage 80 g/ha
Protocol: as §2

[10] = tested on: Pharbitis purpurea; assay: Post-emergence herbicidal action, PHBPU; conditions: for herbicidal action PHBPU: Dosage 80 g/ha; for Herbicidal action against PHBPU: post-emergence, dosage 80 g/ha
Protocol: as §2

[11] = tested on: Setaria viridis; assay: Post-emergence herbicidal action, SETVI; parameters: key: % herbicidal action vs untreated; 100 = plants died, 0 = like control; conditions: for herbicidal action SETVI: Dosage 80 g/ha; for Herbicidal action against SETVI: post-emergence, dosage 80 g/ha
Protocol: as §2

[12] = tested on: Stellaria media; assay: Post-emergence herbicidal action, STEME; parameters: key: % herbicidal action vs untreated; 100 = plants died, 0 = like control; conditions: for herbicidal action STEME: Dosage 80 g/ha; for Herbicidal action against STEME: post-emergence, dosage 80 g/ha
Protocol: as §2

[13] = tested on: Veronica persica; assay: Post-emergence herbicidal action, VERPE; parameters: key: % herbicidal action vs untreated; 100 = plants died, 0 = like control; conditions: for herbicidal action VERPE: Dosage 80 g/ha; for Herbicidal action against VERPE: post-emergence, dosage 80 g/ha
Protocol: as §2

[14] = tested on: Viola tricolor; assay: Post-emergence herbicidal action, VIOTR; parameters: key: % herbicidal action vs untreated; 100 = plants died, 0 = like control; conditions: for herbicidal action VIOTR: Dosage 80 g/ha; for Herbicidal action against VIOTR: post-emergence
Protocol: as §2

[15] = tested on: Stellaria media; assay: Pre-emergence herbicidal action, STEME; conditions: dosage 320 g/ha
Source text: as §1

[16] = tested on: Echinochloa crus-galli; assay: Pre-emergence herbicidal action, ECHCG; conditions: dosage 320 g/ha
Source text: as §1

[17] = comparative experiment, 20 g of a.i./ha

Compound | herbicidal action ABUTH [1] [%] | herbicidal action AMARE [2] [%] | herbicidal action MATIN [3] [%] | herbicidal action VERPE [4] [%] | herbicidal action VIOTR [5] [%] | Herbicidal action against AMARE [7] | Herbicidal action against ECHCG [8] | Herbicidal action against STEME [12] | Herbicidal action against VERPE [13] | Herbicidal action against VIOTR ([14]; dosage 80 g/ha) | herbicidal action ECHCG [16] [%] | Herbicidal action against ABUTH [6] | Herbicidal action against PHBPU [10] | further results
CSCc1c(S(C)(=O)=O)ccc(C(=O)Nc2nnnn2C)c1C [Example 1-37] | 80 | 100 | 80 | 90 | 100 |  |  |  |  |  |  |  |  | herbicidal action ABUTH [6]: 90; herbicidal action AMARE [7]: 100; herbicidal action ECHCG [8]: 100; herbicidal action MATIN [9]: 80; herbicidal action PHBPU [10]: 90; herbicidal action SETVI [11]: 100; herbicidal action STEME [12]: 100; herbicidal action VERPE [13]: 100; herbicidal action VIOTR [14]: 100
Cc1c(C(=O)Nc2nnnn2C)ccc(S(C)(=O)=O)c1C[S+](C)[O-] (stereo not shown) [Example 1-38] |  | 80 | 90 | 100 |  | 100 | 90 | 100 | 90 | 80 |  |  |  | herbicidal action STEME [15]: 90%
Cc1c(C(=O)Nc2nnnn2C)ccc(Cl)c1C[S+](C)[O-] (stereo not shown) [Example 1-47] |  |  |  |  |  |  |  |  |  |  |  |  |  | Herbicidal action against AMARE [2, 17]: 80; Herbicidal action against VIOTR [5, 17]: 30
Cn1nnnc1NC(=O)c1ccc(C(F)(F)F)c(CS(C)(=O)=O)c1S(C)(=O)=O [Example 1-199] |  | 90 | 90 | 100 |  | 80 | 80 | 90 | 80 | 90 | 90 | 90 | 80 | 
COc1c(C(=O)Nc2nnnn2C)ccc(Cl)c1C[S+](C)[O-] (stereo not shown) [Example 1-571] | 100 | 90 |  | 80 |  |  |  |  |  |  |  |  |  | herbicidal action ABUTH [6]: 80; herbicidal action AMARE [7]: 80; herbicidal action ECHCG [8]: 90; herbicidal action MATIN [9]: 80; herbicidal action PHBPU [10]: 90; herbicidal action SETVI [11]: 80; herbicidal action STEME [12]: 100; herbicidal action VERPE [13]: 90; herbicidal action VIOTR [14]: 80
COc1c(C(=O)Nc2nnnn2C)ccc(Cl)c1CS(C)(=O)=O [Example 1-572] | 80 | 100 |  | 80 |  | 90 | 90 |  | 90 | 80 | 80 | 80 | 80 | Herbicidal action against SETVI [11]: 80; Herbicidal action against VIOTR ([14]; comparative experiment, 5 g of a.i./ha): 50
CCCn1nnnc1NC(=O)c1ccc(C(F)F)c(CS(C)(=O)=O)c1C [Example 3-109] | 100 | 100 | 100 | 90 | 100 | 100 | 90 | 100 | 100 | 100 | 100 |  | 90 | Herbicidal action against MATIN [9]: 100; Herbicidal action against SETVI [11]: 90
CCCn1nnnc1NC(=O)c1ccc(I)c(CSC)c1Cl [Example 3-362] |  |  |  |  | 80 | 80 | 80 |  |  |  |  | 80 |  | Herbicidal action against MATIN [9]: 90
